Reference: patent publication US9067934B2, “Bicyclic pyridinones” (Pfizer Inc., priority 2011, dated 2015)
Structures can show the parent of a compound that is named as a salt.

Test system: production of amyloid beta protein Aβ(1-42) (γ-secretase) in human WT-APP overexpressing CHO cells
Test: Cell-Based γ-Secretase Assay with ELISA Readout
Settings: human WT-APP overexpressing CHO cells, ~24 hours at 37° C., Aβ(1-42) ELISA; footnotes: a = geometric mean of >15 determinations, b = single determination, c = geometric mean of 7-15 determinations; read-out: Aβ 42B IC50 (Geometric Mean of 2-6 Determinations)
Description: Cell-Based γ-Secretase Assay with ELISA Readout
The ability of compounds to modulate production of amyloid beta protein Aβ(1-42) was determined using human WT-APP overexpressing CHO cells. Cells were plated at 22,000 cells/100 μL well in 96 well tissue culture treated, clear plates (Falcon) in DMEM/F12 based medium and incubated for 24 hours at 37° C. Compounds for testing were diluted in 100% DMSO to achieve an eleven points, half log, dose response for IC50 determinations. Compounds were added in fresh medium to achieve 1% final DMSO. Appropriate vehicle or inhibitor controls were added into control wells individually to obtain minimum or maximum inhibition values, respectively, for the assay signal window before the plates were incubated for ˜24 hours at 37° C. This procedure produces conditioned media in each well which is tested for Aβ(1-42) levels in the ELISA detection step described next. The remaining cell cultures in each well are also tested for cell toxicity as described below.
Coating of ELISA assay plates was initiated by addition of 50 μL/well of an in-house Aβ(1-42) specific antibody at (3 μg/mL) in 0.1 M NaHCO3 (pH 9.0) into black 384-well Maxisorp® plates (Nunc) and incubated overnight at 4° C. The capture antibody was then aspirated from the ELISA assay plates and plates were washed 4×100 μL with Wash Buffer (Dulbecco's PBS, 0.05% Tween 20). 90 μL/well of Blocking Buffer (Dulbecco's PBS, 1.0% BSA (Sigma A7030)) was then added to plates. Ambient temperature incubation was allowed to proceed for a minimum of two hours. Blocking buffer was then removed and 20 μL/well Assay Buffer (Dulbecco's PBS, 1.0% BSA (Sigma A7030), 0.05% Tween 20) was then added. At this point, 40 μL (in duplicate) of experimental conditioned media (described above) were transferred into wells of the blocked ELISA plates containing the capture antibody, followed by overnight incubation at 4° C. Cell toxicity was also measured in the corresponding remaining cells after removal of the conditioned media for the Aβ(1-42) assay by a colorimetric cell proliferation assay (CellTiter 96® AQueous One Solution Cell Proliferation Assay, Promega) according to the manufacturer's instructions.
After overnight incubation of the ELISA assay plates at 4° C., unbound Aβ peptides were removed via (4×100 μL) washes with Wash Buffer. Europium (Eu) labeled (custom labeled, Perkin Elmer) Aβ(1-16) 6e10 Monoclonal Antibody (Covance #SIG-39320) was added, (50 μL/well Eu-6e10 @ 1:10,000, 20 uM EDTA) in Assay Buffer. Incubation at ambient temperature for a minimum of 2 hours was followed by (4×100 μL) washes with Wash Buffer, before 30 μL/well of Delfia Enhancement Solution (Perkin Elmer) was added. Following an one hour ambient temperature incubation, the plates were read on an EnVision plate reader (Perkin Elmer) using standard DELFIA TRF settings. Data analysis including inhibitory IC50 determination was performed using nonlinear regression fit analysis (in-house software) and the appropriate plate mean values for the maximum and minimum inhibition controls.

Compound: Cc1cn(-c2ccc3n(c2=O)CCN(CCOc2ccc(Cl)cc2C(C)(C)O)C3=O)cn1 [Example 44, 2-{2-[4-chloro-2-(1-hydroxy-1-methylethyl)phenoxy]ethyl}-7-(4-methyl-1H-imidazol-1-yl)-3,4-dihydro-2H-pyrido[1,2-a]pyrazine-1,6-dione, trifluoroacetate salt]
- IC50: 142 nM

Compound: Cc1cn(-c2ccc3n(c2=O)CCN(CCOc2ccc(Cl)c(F)c2C(F)(F)F)C3=O)cn1 [Example 45, 2-{2-[4-chloro-3-fluoro-2-(trifluoromethyl)phenoxy]ethyl}-7-(4-methyl-1H-imidazol-1-yl)-3,4-dihydro-2H-pyrido[1,2-a]pyrazine-1,6-dione, trifluoroacetate salt]
- IC50: 66.3 nM

Compound: Cc1cn(-c2ccc3n(c2=O)CCN(CCOc2cccc4c(Cl)ccc(Cl)c24)C3=O)cn1 [Example 46, 2-{2-[(5,8-dichloro-1-naphthyl)oxy]ethyl}-7-(4-methyl-1H-imidazol-1-yl)-3,4-dihydro-2H-pyrido[1,2-a]pyrazine-1,6-dione, trifluoroacetate salt]
- IC50: 9.38 nM

Compound: Cc1cn(-c2ccc3n(c2=O)CCN(CCOc2ccnc4cc(C(F)(F)F)c(Cl)cc24)C3=O)cn1 [Example 47, 2-(2-{[6-chloro-7-(trifluoromethyl)quinolin-4-yl]oxy}ethyl)-7-(4-methyl-1H-imidazol-1-yl)-3,4-dihydro-2H-pyrido[1,2-a]pyrazine-1,6-dione]
- IC50: 9.48 nM

Compound: Cc1cn(-c2ccc3n(c2=O)CCN(CCOc2ccc(F)cc2-c2ccnc(C(F)(F)F)c2)C3=O)cn1 [Example 48, 2-(2-{4-fluoro-2-[2-(trifluoromethyl)pyridin-4-yl]phenoxy}ethyl)-7-(4-methyl-1H-imidazol-1-yl)-3,4-dihydro-2H-pyrido[1,2-a]pyrazine-1,6-dione]
- IC50: 143 nM

Compound: Cc1cn(-c2ccc3n(c2=O)CCN(CCOc2ccccc2-c2cc(C(F)(F)F)[nH]n2)C3=O)cn1 [Example 49, 7-(4-methyl-1H-imidazol-1-yl)-2-(2-{2-[5-(trifluoromethyl)-1H-pyrazol-3-yl]phenoxy}ethyl)-3,4-dihydro-2H-pyrido[1,2-a]pyrazine-1,6-dione]
- IC50: 178 nM

Compound: Cc1cn(-c2ccc3n(c2=O)CCN(CCOc2ccc(Cl)cc2-n2ccc(C(F)(F)F)n2)C3=O)cn1 [Example 50, 2-(2-{4-chloro-2-[3-(trifluoromethyl)-1H-pyrazol-1-yl]phenoxy}ethyl)-7-(4-methyl-1H-imidazol-1-yl)-3,4-dihydro-2H-pyrido[1,2-a]pyrazine-1,6-dione, trifluoroacetate salt]
- IC50: 29.3 nM

Compound: Cc1cn(-c2ccc3n(c2=O)CCN(CCOc2cc(C(F)(F)F)nc4c(C)ccc(Cl)c24)C3=O)cn1 [Example 51, 2-(2-{[5-chloro-8-methyl-2-(trifluoromethyl)quinolin-4-yl]oxy}ethyl)-7-(4-methyl-1H-imidazol-1-yl)-3,4-dihydro-2H-pyrido[1,2-a]pyrazine-1,6-dione]
- IC50: 20 nM

Compound: Cc1cn(-c2ccc3n(c2=O)CCN(CCOc2ccc(F)cc2-c2csc(C(F)(F)F)n2)C3=O)cn1 [Example 52, 2-(2-{4-fluoro-2-[2-(trifluoromethyl)-1,3-thiazol-4-yl]phenoxy}ethyl)-7-(4-methyl-1H-imidazol-1-yl)-3,4-dihydro-2H-pyrido[1,2-a]pyrazine-1,6-dione]
- IC50: 23.5 nM

Compound: Cc1cn(-c2ccc3n(c2=O)CCN(CCOc2cccc4cc(F)ccc24)C3=O)cn1 [Example 53, 2-{2-[(6-fluoro-1-naphthyl)oxy]ethyl}-7-(4-methyl-1H-imidazol-1-yl)-3,4-dihydro-2H-pyrido[1,2-a]pyrazine-1,6-dione, trifluoroacetate salt]
- IC50: 26.2 nM

Compound: COc1ccc(-c2cc(C(F)(F)F)[nH]n2)c(OCCN2CCn3c(ccc(-n4cnc(C)c4)c3=O)C2=O)c1 [Example 54, 2-(2-{5-methoxy-2-[5-(trifluoromethyl)-1H-pyrazol-3-yl]phenoxy}ethyl)-7-(4-methyl-1H-imidazol-1-yl)-3,4-dihydro-2H-pyrido[1,2-a]pyrazine-1,6-dione]
- IC50: 215 nM

Compound: Cc1cn(-c2ccc3n(c2=O)CCN(C(C)COc2ccc(F)cc2C(F)(F)F)C3=O)cn1 (stereo not shown) [Example 55, 2-{2-[4-fluoro-2-(trifluoromethyl)phenoxy]-1-methylethyl}-7-(4-methyl-1H-imidazol-1-yl)-3,4-dihydro-2H-pyrido[1,2-a]pyrazine-1,6-dione, formate salt]
- IC50: 168 nM

Compound: Cc1cn(-c2ccc3n(c2=O)CCN(CCOc2cc(C(F)(F)F)nn2-c2ccc(F)cc2C)C3=O)cn1 [Example 56, 2-(2-{[1-(4-fluoro-2-methylphenyl)-3-(trifluoromethyl)-1H-pyrazol-5-yl]oxy}ethyl)-7-(4-methyl-1H-imidazol-1-yl)-3,4-dihydro-2H-pyrido[1,2-a]pyrazine-1,6-dione]
- IC50: 399 nM

Compound: Cc1cn(-c2ccc3n(c2=O)CCN([C@@H](C)COc2ccc(F)cc2C(F)(F)F)C3=O)cn1 [Example 57, 2-{(1S)-2-[4-fluoro-2-(trifluoromethyl)phenoxy]-1-methylethyl}-7-(4-methyl-1H-imidazol-1-yl)-3,4-dihydro-2H-pyrido[1,2-a]pyrazine-1,6-dione]
- IC50: 113 nM

Compound: Cc1cn(-c2ccc3n(c2=O)CCN(CCOc2ccccc2-c2cc(C(F)F)no2)C3=O)cn1 [Example 58, 2-(2-{2-[3-(difluoromethyl)isoxazol-5-yl]phenoxy}ethyl)-7-(4-methyl-1H-imidazol-1-yl)-3,4-dihydro-2H-pyrido[1,2-a]pyrazine-1,6-dione, trifluoroacetate salt]
- IC50: 72.1 nM

Compound: Cc1cn(-c2ccc3n(c2=O)CCN(CCOc2ccc(Cl)cc2-c2cc(C(F)(F)F)[nH]n2)C3=O)cn1 [Example 59, 2-(2-{4-chloro-2-[5-(trifluoromethyl)-1H-pyrazol-3-yl]phenoxy}ethyl)-7-(4-methyl-1H-imidazol-1-yl)-3,4-dihydro-2H-pyrido[1,2-a]pyrazine-1,6-dione]
- IC50: 530 nM

Compound: COc1cccc2c(OCCN3CCn4c(ccc(-n5cnc(C)c5)c4=O)C3=O)cccc12 [Example 60, 2-{2-[(5-methoxy-1-naphthyl)oxy]ethyl}-7-(4-methyl-1H-imidazol-1-yl)-3,4-dihydro-2H-pyrido[1,2-a]pyrazine-1,6-dione, trifluoroacetate salt]
- IC50: 33.3 nM

Compound: Cc1cn(-c2ccc3n(c2=O)CCN(CCOc2ccnc4cc(C(F)(F)F)ccc24)C3=O)cn1 [Example 61, 7-(4-methyl-1H-imidazol-1-yl)-2-(2-{[7-(trifluoromethyl)quinolin-4-yl]oxy}ethyl)-3,4-dihydro-2H-pyrido[1,2-a]pyrazine-1,6-dione]
- IC50: 108 nM

Compound: Cc1cn(-c2ccc3n(c2=O)CCN(CCOc2cc(C(F)(F)F)nc4c(C)cc(Cl)cc24)C3=O)cn1 [Example 62, 2-(2-{[6-chloro-8-methyl-2-(trifluoromethyl)quinolin-4-yl]oxy}ethyl)-7-(4-methyl-1H-imidazol-1-yl)-3,4-dihydro-2H-pyrido[1,2-a]pyrazine-1,6-dione]
- IC50: 39.7 nM

Compound: Cc1cn(-c2ccc3n(c2=O)CCN(CCOc2cc(C(F)(F)F)nc4c(Cl)cccc24)C3=O)cn1 [Example 63, 2-(2-{[8-chloro-2-(trifluoromethyl)quinolin-4-yl]oxy}ethyl)-7-(4-methyl-1H-imidazol-1-yl)-3,4-dihydro-2H-pyrido[1,2-a]pyrazine-1,6-dione]
- IC50: 76.6 nM

Compound: COc1ccc2c(OCCN3CCn4c(ccc(-n5cnc(C)c5)c4=O)C3=O)cccc2c1F [Example 64, 2-{2-[(5-fluoro-6-methoxy-1-naphthyl)oxy]ethyl}-7-(4-methyl-1H-imidazol-1-yl)-3,4-dihydro-2H-pyrido[1,2-a]pyrazine-1,6-dione, trifluoroacetate salt]
- IC50: 42.4 nM

Compound: Cc1cn(-c2ccc3n(c2=O)CCN(CCOc2ccccc2-c2ccc(C#N)c(C(F)(F)F)c2)C3=O)cn1 [Example 65, 2′-{2-[7-(4-methyl-1H-imidazol-1-yl)-1,6-dioxo-1,3,4,6-tetrahydro-2H-pyrido[1,2-a]pyrazin-2-yl]ethoxy}-3-(trifluoromethyl)biphenyl-4-carbonitrile]
- IC50: 46.1 nM
